In the OligoGym collection one finds normalised inhibition (eCFP-eYFP dual reporter) data, which are given here for eight substances.

Oligonucleotides are given in HELM: sugar(base)linkage, 5' to 3'; d 2'-deoxyribose, r ribose, m 2'-O-methylribose, p phosphate. ss, as = sense and antisense strand
Further: test concentration or dose not given here.

The target of this data set is TMEM63B. The experiment in a line: reporter assay of Huesken 2005. Conditions: siRNA. (In general: A reporter such as luciferase makes a cellular process visible.)
“RNA1{r(G)p.r(C)p.r(U)p.r(A)p.r(U)p.r(G)p.r(C)p.r(A)p.r(C)p.r(G)p.r(G)p.r(G)p.r(G)p.r(A)p.r(C)p.r(A)p.r(G)p.r(C)p.r(C)p.d(T)p.d(T)}|RNA2{r(G)p.r(G)p.r(C)p.r(U)p.r(G)p.r(U)p.r(C)p.r(C)p.r(C)p.r(C)p.r(G)p.r(U)p.r(G)p.r(C)p.r(A)p.r(U)p.r(A)p.r(G)p.r(C)p.d(T)p.d(G)}$$$RNA1{StrandType:ss}|RNA2{StrandType:as}$”: the normalised inhibition (eCFP-eYFP dual reporter) came out at 73.2%.

Substance “RNA1{r(U)p.r(G)p.r(C)p.r(C)p.r(G)p.r(U)p.r(G)p.r(G)p.r(G)p.r(G)p.r(A)p.r(G)p.r(C)p.r(C)p.r(A)p.r(C)p.r(G)p.r(C)p.r(C)p.d(T)p.d(T)}|RNA2{r(G)p.r(G)p.r(C)p.r(G)p.r(U)p.r(G)p.r(G)p.r(C)p.r(U)p.r(C)p.r(C)p.r(C)p.r(C)p.r(A)p.r(C)p.r(G)p.r(G)p.r(C)p.r(A)p.d(G)p.d(G)}$$$RNA1{StrandType:ss}|RNA2{StrandType:as}$” registered a normalised inhibition (eCFP-eYFP dual reporter) of 62.7%.

“RNA1{r(G)p.r(U)p.r(C)p.r(C)p.r(C)p.r(C)p.r(A)p.r(A)p.r(A)p.r(U)p.r(C)p.r(U)p.r(G)p.r(C)p.r(G)p.r(A)p.r(A)p.r(A)p.r(U)p.d(T)p.d(T)}|RNA2{r(A)p.r(U)p.r(U)p.r(U)p.r(C)p.r(G)p.r(C)p.r(A)p.r(G)p.r(A)p.r(U)p.r(U)p.r(U)p.r(G)p.r(G)p.r(G)p.r(G)p.r(A)p.r(C)p.d(A)p.d(G)}$$$RNA1{StrandType:ss}|RNA2{StrandType:as}$” gave a normalised inhibition (eCFP-eYFP dual reporter) of 82%.

Turning to “RNA1{r(G)p.r(G)p.r(C)p.r(C)p.r(U)p.r(G)p.r(C)p.r(U)p.r(C)p.r(A)p.r(U)p.r(G)p.r(U)p.r(A)p.r(C)p.r(A)p.r(U)p.r(G)p.r(A)p.d(T)p.d(T)}|RNA2{r(U)p.r(C)p.r(A)p.r(U)p.r(G)p.r(U)p.r(A)p.r(C)p.r(A)p.r(U)p.r(G)p.r(A)p.r(G)p.r(C)p.r(A)p.r(G)p.r(G)p.r(C)p.r(C)p.d(T)p.d(G)}$$$RNA1{StrandType:ss}|RNA2{StrandType:as}$”, the normalised inhibition (eCFP-eYFP dual reporter) is 71.9%.

“RNA1{r(U)p.r(C)p.r(U)p.r(G)p.r(U)p.r(C)p.r(U)p.r(C)p.r(U)p.r(G)p.r(C)p.r(C)p.r(A)p.r(C)p.r(G)p.r(U)p.r(C)p.r(U)p.r(G)p.d(T)p.d(T)}|RNA2{r(C)p.r(A)p.r(G)p.r(A)p.r(C)p.r(G)p.r(U)p.r(G)p.r(G)p.r(C)p.r(A)p.r(G)p.r(A)p.r(G)p.r(A)p.r(C)p.r(A)p.r(G)p.r(A)p.d(T)p.d(G)}$$$RNA1{StrandType:ss}|RNA2{StrandType:as}$”: the normalised inhibition (eCFP-eYFP dual reporter) is 68.3%.

The substance “RNA1{r(G)p.r(A)p.r(C)p.r(U)p.r(U)p.r(U)p.r(G)p.r(A)p.r(C)p.r(C)p.r(A)p.r(A)p.r(A)p.r(G)p.r(G)p.r(G)p.r(A)p.r(C)p.r(A)p.d(T)p.d(T)}|RNA2{r(U)p.r(G)p.r(U)p.r(C)p.r(C)p.r(C)p.r(U)p.r(U)p.r(U)p.r(G)p.r(G)p.r(U)p.r(C)p.r(A)p.r(A)p.r(A)p.r(G)p.r(U)p.r(C)p.d(A)p.d(A)}$$$RNA1{StrandType:ss}|RNA2{StrandType:as}$” yielded a normalised inhibition (eCFP-eYFP dual reporter) of 89.5%.

“RNA1{r(C)p.r(U)p.r(G)p.r(U)p.r(A)p.r(C)p.r(U)p.r(U)p.r(C)p.r(A)p.r(C)p.r(A)p.r(A)p.r(A)p.r(C)p.r(C)p.r(U)p.r(C)p.r(C)p.d(T)p.d(T)}|RNA2{r(G)p.r(G)p.r(A)p.r(G)p.r(G)p.r(U)p.r(U)p.r(U)p.r(G)p.r(U)p.r(G)p.r(A)p.r(A)p.r(G)p.r(U)p.r(A)p.r(C)p.r(A)p.r(G)p.d(C)p.d(T)}$$$RNA1{StrandType:ss}|RNA2{StrandType:as}$” gave a normalised inhibition (eCFP-eYFP dual reporter) of 57.4%.

Substance “RNA1{r(G)p.r(C)p.r(A)p.r(U)p.r(U)p.r(U)p.r(U)p.r(G)p.r(A)p.r(G)p.r(G)p.r(A)p.r(A)p.r(G)p.r(C)p.r(C)p.r(U)p.r(A)p.r(C)p.d(T)p.d(T)}|RNA2{r(G)p.r(U)p.r(A)p.r(G)p.r(G)p.r(C)p.r(U)p.r(U)p.r(C)p.r(C)p.r(U)p.r(C)p.r(A)p.r(A)p.r(A)p.r(A)p.r(U)p.r(G)p.r(C)p.d(T)p.d(T)}$$$RNA1{StrandType:ss}|RNA2{StrandType:as}$” yielded a normalised inhibition (eCFP-eYFP dual reporter) of 87.3%.
